Where two headings read alike, the source gives them in different places.
What was measured:
[1] = molecular target: T1, HDAC8 (Homo sapiens, UniProt Q9BY41); experiment: HDAC inhibitory activity, fluorescence-coupled acetylated peptide substrate assay
T1 sequence (Q9BY41 1-377): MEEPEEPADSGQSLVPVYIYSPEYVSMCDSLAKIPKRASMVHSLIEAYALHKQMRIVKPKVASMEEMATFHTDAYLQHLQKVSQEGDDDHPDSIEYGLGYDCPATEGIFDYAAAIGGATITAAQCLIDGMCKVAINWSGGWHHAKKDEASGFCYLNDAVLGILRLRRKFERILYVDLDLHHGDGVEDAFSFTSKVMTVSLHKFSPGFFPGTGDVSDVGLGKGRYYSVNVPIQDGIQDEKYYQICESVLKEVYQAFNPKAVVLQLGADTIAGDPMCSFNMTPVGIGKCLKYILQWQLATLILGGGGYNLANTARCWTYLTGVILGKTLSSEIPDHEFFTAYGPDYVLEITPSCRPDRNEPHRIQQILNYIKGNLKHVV
Procedure: (§2) The HDAC inhibitory activity was determined by fluorescence-coupled acetylated peptide substrate assay (Lys-Ac-AMC). HDAC1 protein was purchased from BPS Bioscience, and the reaction buffer system was a modified tris(hydroxymethyl)aminomethane buffer (pH 7.0). The small molecule compounds of the present invention were prepared by being dissolved in 100% DMSO. HDAC was prepared in a buffer at a certain concentration as an enzyme solution; trypsin and fluorescent group 4-amino-7-coumarin coupled-acetylated peptide (Ac-peptide) substrate were prepared in a buffer at a certain concentration as a substrate solution. The compounds were added into the reaction wells in a 384-well plate at a designed concentration of 10 μM, 1 μM, 0.5 μM, 0.1 μM, 0.05 μM, 0.01 μM, 0.005 μM, 0.001 μM, and 0.00005 μM, respectively, and then 15 μl of the HDAC solution was added into the reaction wells (15 μl of blank buffer to the control well). […] The results were analyzed by GraphPad Prism software and IC50 values were calculated according to the formula: Y=Background Data+(Top Data−Background Data)/(1+10^((Log IC50−X) a curve slope)), where Y: the inhibition rate (%) and X: the concentration of the compound.

[2] = molecular target: T2, HDAC6 (Homo sapiens, UniProt Q9UBN7); experiment: as above; assay type: biochemical; conditions: for Selection Ratio HDAC1/6: ratio of IC50 HDAC1 to HDAC6; for Selection Ratio HDAC8/6: ratio of IC50 HDAC8 to HDAC6
T2 sequence (Q9UBN7 1-1215): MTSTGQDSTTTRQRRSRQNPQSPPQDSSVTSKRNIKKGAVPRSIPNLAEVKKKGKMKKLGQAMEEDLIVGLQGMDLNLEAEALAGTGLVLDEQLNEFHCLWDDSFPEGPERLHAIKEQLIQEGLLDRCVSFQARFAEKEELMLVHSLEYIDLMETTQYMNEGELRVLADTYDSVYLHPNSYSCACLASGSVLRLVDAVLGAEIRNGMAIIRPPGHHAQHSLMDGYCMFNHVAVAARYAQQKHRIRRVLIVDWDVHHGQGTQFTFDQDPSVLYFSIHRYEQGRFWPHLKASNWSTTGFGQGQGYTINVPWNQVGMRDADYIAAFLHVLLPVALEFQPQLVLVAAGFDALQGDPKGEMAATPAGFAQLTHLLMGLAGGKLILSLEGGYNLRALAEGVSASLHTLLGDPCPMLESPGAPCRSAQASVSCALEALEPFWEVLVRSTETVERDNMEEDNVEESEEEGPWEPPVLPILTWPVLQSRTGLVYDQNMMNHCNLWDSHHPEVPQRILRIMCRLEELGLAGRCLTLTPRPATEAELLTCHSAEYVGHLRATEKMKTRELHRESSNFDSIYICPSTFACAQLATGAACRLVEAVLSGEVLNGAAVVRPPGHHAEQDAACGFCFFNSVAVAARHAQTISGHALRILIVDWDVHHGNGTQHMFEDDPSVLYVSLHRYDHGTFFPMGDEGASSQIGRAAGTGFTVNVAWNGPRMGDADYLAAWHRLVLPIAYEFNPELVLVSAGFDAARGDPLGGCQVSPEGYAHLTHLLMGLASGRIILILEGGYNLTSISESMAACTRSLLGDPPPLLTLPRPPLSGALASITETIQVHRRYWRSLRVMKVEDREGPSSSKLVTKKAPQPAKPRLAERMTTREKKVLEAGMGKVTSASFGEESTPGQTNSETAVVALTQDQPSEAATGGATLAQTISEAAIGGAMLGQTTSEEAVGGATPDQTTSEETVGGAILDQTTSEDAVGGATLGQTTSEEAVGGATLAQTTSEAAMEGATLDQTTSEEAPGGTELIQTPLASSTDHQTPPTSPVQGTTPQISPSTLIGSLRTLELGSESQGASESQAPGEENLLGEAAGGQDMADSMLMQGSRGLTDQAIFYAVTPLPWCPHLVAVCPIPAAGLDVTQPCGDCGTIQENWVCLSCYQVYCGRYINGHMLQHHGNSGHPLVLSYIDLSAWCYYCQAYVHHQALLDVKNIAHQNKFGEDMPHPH
Procedure: as §2

[3] = system: HCT116 cells; experiment: Therapeutic effect on the colon cancer HCT116 model (intravenous); conditions: for survival time of mice: 9 times, vs blank control, P<0.01; for effect prolonging the survival time compared with positive control group: SAHA 50 mg/kg intraperitoneally
[4] = molecular target: T3, HDAC1 (Homo sapiens, UniProt Q13547); experiment: HDAC inhibitory activity, fluorescence-coupled acetylated peptide substrate assay (Lys-Ac-AMC); assay type: biochemical
T3 construct: purchased BPS Bioscience
Procedure: as §2

[5] = system: Human liver cancer cell HepG2; experiment: Cell proliferative activity (MTT / cck-8); assay type: cell-based; conditions: incubated for 96 hours, read-out: Half-Inhibitory Concentration IC50 Human liver cancer cell HepG2
Procedure: (§1) Tumor cell line A375: human melanoma cell; H460: lung adenocarcinoma cell; Hela: human cervical cancer cell; HepG2: human liver cancer cell; and SKOV-3: human ovarian cancer cell, were all purchased from ATCC and cultured to logarithmic phase according to the cultivation protocol recommended by ATCC. The cells in the logarithmic phase were plated onto a 96-well plate at 2000-3000 cells/well; in the case of adherent cells, the cells should be adherent to the wall. […] After that, the cell proliferative activity was determined by MTT assay for the tumor cells representing the solid tumor model and by cck-8 assay for the tumor cells representing the hematologic tumor model.

[6] = system: Human lung cancer cell H460; experiment: Cell proliferative activity (MTT / cck-8); assay type: cell-based; conditions: NCI-H460, incubated for 96 hours, read-out: Half-Inhibitory Concentration IC50 Human lung cancer cell H460
Procedure: as §1

[7] = system: Human melanoma A375; experiment: Cell proliferative activity (MTT / cck-8); assay type: cell-based; conditions: A-375, incubated for 96 hours, read-out: Half-Inhibitory Concentration IC50 Human melanoma A375
Procedure: as §1

[8] = system: Human ovarian cancer cell SKOV-3; experiment: Cell proliferative activity (MTT / cck-8); assay type: cell-based; conditions: SK-OV-3, incubated for 96 hours, read-out: Half-Inhibitory Concentration IC50 Human ovarian cancer cell SKOV-3
Procedure: as §1

[9] = system: Human cervical cancer cell Hela; experiment: Cell proliferative activity (MTT / cck-8); assay type: cell-based; conditions: incubated for 96 hours, read-out: Half-Inhibitory Concentration IC50 Human cervical cancer cell Hela
Procedure: as §1

[10] = system: acetylation level of HDAC substrate (Ac-α-tubulin, Ac-H3); experiment: Western blot assay for detecting the level of acetylated proteins; assay type: cell-based; conditions: HCT116 cells (FIG. 3) or MV4-11 cells (FIG. 4)
Procedure: The compounds or the positive control compound were added into each group of cells already adherent to the walls (2×10^6 HCT116 cells or 5×10^6 MV4-11 cells) at a designed concentration. After treatment for 4 hours, trypsin was added for digestion, followed by collecting the cells. After washing with cold PBS twice, the cells were lysed by adding RIPA lysis solution (which was purchased from Beyotime, Art. No.: P0013B, adding 1 mM PMSF before use), allowing for lysis on ice for 30 minutes while vortexing at intervals. The lysate was subjected to ultrasonic treatment on an ice bath (ultrasonicated for 3 seconds and repeated 5 times for each group at an interval of 10 seconds). The supernatant was collected by centrifugation at 12,000 g for 20 min at 4° C. and then mixed the SDS-PAGE loading buffer (purchased from Beyotime, Art. No.: P0015F). The mixture was heated in boiling water for 5 minutes to obtain a protein sample. The protein concentration of the sample was quantified by BCA method. 20 […] total protein from each group was subjected to 15% SDS-PAGE electrophoresis, and 5μl of a pre-stained protein marker (purchased from Thermo, Art. No.: 26616) was loaded to an additional selective lane in order to compare protein molecular weights as well as to detect the transmembrane result. When the bromophenol blue bands ran close to the bottom of the gel, the electrophoresis was terminated and the proteins on the gel were transferred to a PVDF membrane at a pore size of 0.22 μm. After 1.5 hours of transmembrane at a constant current of 200 mA, the PVDF membrane was removed and blocked in 5% skimmed milk for 1 hour. After completion of blocking, the membrane was incubated with the primary antibody (Ac-H3 antibody was purchased from Santa Cruz, Art. No.: sc-56616; Ac-α-tubulin antibody was purchased from Santa Cruz, Art. No.: sc-23950) overnight at 4° C. and then washed with TBS/T for 10 minutes for 3 times. The membrane was incubated with the horseradish peroxidase-coupled secondary antibody at room temperature for 1 hour, and then washed with TBS/T for 10 minutes for 3 times. After washing with TBS for 5 minutes, the membrane was exposed and developed by using a film in the darkroom. The detected GAPDH protein was an internal reference protein (GAPDH antibody was purchased from ZSGB-Bio, Art. No.: TA-08).

[11] = cited from earlier work
[12] = system: A2780s cells; conditions: A2780s model, 100 mg/kg intragastrically once every other day, 16 times

T3 sequence (Q13547 whole entry): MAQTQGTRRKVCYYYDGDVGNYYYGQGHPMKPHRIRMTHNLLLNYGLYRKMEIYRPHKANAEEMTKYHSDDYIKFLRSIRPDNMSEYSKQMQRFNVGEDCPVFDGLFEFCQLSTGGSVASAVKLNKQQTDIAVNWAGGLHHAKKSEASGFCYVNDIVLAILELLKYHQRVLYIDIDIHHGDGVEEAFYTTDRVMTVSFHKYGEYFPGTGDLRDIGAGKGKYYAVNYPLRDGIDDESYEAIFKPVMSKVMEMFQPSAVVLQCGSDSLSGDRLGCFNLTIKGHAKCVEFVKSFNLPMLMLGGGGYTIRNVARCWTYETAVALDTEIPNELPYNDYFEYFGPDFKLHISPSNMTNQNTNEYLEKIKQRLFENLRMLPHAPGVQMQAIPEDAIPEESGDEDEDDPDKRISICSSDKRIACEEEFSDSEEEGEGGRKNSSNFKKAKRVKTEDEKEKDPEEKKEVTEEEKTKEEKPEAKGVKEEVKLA

Molecule | IC50 ([1]; IC50 HDAC8, Table 2) [nM] | IC50 ([1]; read-out: IC50 HDAC8, Table 3) [nM] | IC50 ([2]; Table 2) [nM] | IC50 ([2]; Table 3) [nM] | Selection Ratio HDAC1/6 [2] | Selection Ratio HDAC8/6 [2] | IC50 ([4]; Table 2) [nM] | IC50 ([4]; Table 3) [nM] | IC50 [5] [nM] | IC50 [6] [nM] | IC50 [7] [nM] | IC50 [8] [nM] | IC50 [9] [nM] | other results
Cc1nc(N(C)c2ccc(OCCCC(=O)NO)cc2)c2ccccc2n1 [II-2, N-hydroxy-4-(4-(methyl(2-methyl-4-quinazolinyl)amino)phenoxy)butanamide] | > 1000 | 1460 | 100 to 1000 | 196 | 0.4 | 7.5 | 10 to 100 | 84 | 10 to 100 | 100 to 1000 | 100 to 1000 | 10 to 100 | 100 to 1000 | survival time of mice ([3]; 50 mg/kg intravenously once every other day): significantly prolonged the survival time of mice; effect prolonging the survival time compared with positive control group ([3]; 50 mg/kg intravenously): superior to that of the positive control group
O=C(CCCCCCC(=O)Nc1ccccc1)NO [SAHA, reference compound] |  |  |  |  |  |  |  |  |  |  |  |  |  | acetylation of H3 (Ac-H3) [10]: up-regulate acetylation of tubulin and H3; acetylation of α-tubulin [10]: up-regulate acetylation of tubulin and H3; toxic side effects ([11]; clinical data): thrombosis and neurotoxicity; death of mice during the experiment [12]: one mouse died
Nc1ccccc1NC(=O)c1ccc(CNC(=O)OCc2cccnc2)cc1 [Entinostat] |  |  |  |  |  |  |  |  |  |  |  |  |  | elimination half-life in human body ([11]; human, clinical trials): ~100 h
CCCCCN(c1ccc(OC)c(OCCCC(=O)NO)c1)c1nc(C)nc2ccccc12 [IV-4, N-hydroxy-4-(2-methoxy-5-((2-methyl-4-quinazolinyl)(pentyl)amino)phenoxy)butanamide] | > 1000 |  | 10 to 100 |  |  |  | 10 to 100 |  | 100 to 1000 | > 1000 | 100 to 1000 | > 1000 | 100 to 1000 | 
COc1ccc(N(C)c2nc(C)nc3ccccc23)cc1OCC(=O)NO [III-1, N-hydroxy-2-(2-methoxy-5-(methyl(2-methyl-4-quinazolinyl)amino)phenoxy) acetamide] | > 1000 |  | > 1000 |  |  |  | > 1000 |  | < 10 | < 10 | 10 to 100 | < 10 | < 10 | survival time of mice ([3]; 10 mg/kg intravenously once every other day): significantly prolonged the survival time of mice; effect prolonging the survival time compared with positive control group ([3]; 10 mg/kg intravenously): superior to that of the positive control group
FK228 |  |  |  |  |  |  |  |  |  |  |  |  |  | incidence of medication-related adverse reactions above Phase III ([11]; clinical data): up to 66%; toxic side effects ([11]; clinical data): cardiotoxicity
CN(c1ccc(OCCCCCC(=O)NO)cc1)c1ncnc2ccccc12 [II-15, N-hydroxy-6-(4-(methyl(4-quinazolinyl)amino)phenoxy)hexanamide] | > 1000 | 1060 | 10 to 100 | 19 | 9.3 | 55.7 | 100 to 1000 | 176 | > 1000 | > 1000 | 100 to 1000 | > 1000 | > 1000 | 
Cc1nc(N(C)c2ccc(Oc3ccc(C(=O)NO)cn3)cc2)c2ccccc2n1 [II-7, N-hydroxy-6-(4-(methyl(2-methyl-4-quinazolinyl)amino)phenoxy)nicotinamide] | > 1000 |  | < 10 | 5.8 | 110.0 | 218.1 | 100 to 1000 | 638 | 100 to 1000 | 100 to 1000 | 100 to 1000 | 100 to 1000 | 100 to 1000 | IC50 ([1]; IC50 HDAC8, Table 3): 1260 nM
CN(c1ccc(OCCCC(=O)NO)cc1)c1ncnc2ccccc12 [II-13, N-hydroxy-4-(4-(methyl(4-quinazolinyl)amino)phenoxy)butanamide] | > 1000 | 2460 | 10 to 100 | 34 | 2.2 | 72.3 | 10 to 100 | 76 | 100 to 1000 | 100 to 1000 | 100 to 1000 | 100 to 1000 | 100 to 1000 | 
CN(c1ccc(OCCCCC(=O)NO)cc1)c1ncnc2ccccc12 [II-14, N-hydroxy-5-(4-(methyl(4-quinazolinyl)amino)phenoxy)pentanamide] | > 1000 | 1330 | 10 to 100 | 49 | 4.1 | 27.1 | 100 to 1000 | 203 | > 1000 | > 1000 | > 1000 | > 1000 | > 1000 | 
